From patent US8703711B2, “Ninjurin-1 modulation and uses thereof” (Val-Chum, Limited Partnership, priority 2009, dated 2014)

Tests used:
[1] = system: human CD14+ monocytes migrating across human BBB-endothelial cells; assay: In vitro model of the human BBB (Boyden chamber): CD14+ monocyte migration; format: cell-based; details: human Ninj26-37 peptide 0.4 mM on BBB-ECs 1 h before cells; 24 h migration; vs scramble peptide
Method: In vitro model of the BBB. BBB-ECs grown in primary cultures were used to generate an in vitro model of the human BBB, as published previously (Cayrol et al., Nature Immunol 9(2): 137-45 Epub 2007 Dec. 23). Human BBB-endothelial cells (25×10^3 cells/chamber) were grown in primary culture on 3 μm porous membrane (Becton Dickinson Labware, Franklin Lakes, N.J., USA), coated with 0.5% gelatin (Sigma), in endothelial cell culture media supplemented with 40% ACM, for 4 days to reach confluency. The BBB-endothelial cells were treated with 0.4 mM of scramble peptide (WRGNPGIRWAPH, SEQ ID NO: 12), 0.4 mM of human Ninj26-37 (PARWGWRHGPIN; SEQ ID NO: 5), 10 μg/ml of sheep IgG isotype control or 10 μg/ml of sheep anti-human Ninjurin-1 blocking Ab one hour prior to the addition of the leukocytes. Human ex vivo CD14^+ monocytes, or CD4^+, or CD8^+ lymphocytes were isolated, from consenting healthy donors, as described above. The leukocytes were added to the upper chamber (1×10^6 cells/chamber) and were allowed to migrate across human BBB-endothelial cells for 24 h. The cells that migrated through the BBB-endothelial cells, were recovered from the lower chamber and counted manually. All migration data shown represent at least 3 independent experiments performed in triplicate.

EAE mice = assay: Experimental autoimmune encephalomyelitis (EAE) induced with MOG35-55/CFA; format: in vivo, C57BL/6 mice
Method: Flow Cytometric analysis of Ninjurin-1 expression. Cells were harvested and resuspended in FACS buffer composed of PBS supplemented with 1% FBS (Biosource-Invitrogen) and 0.1% NaN3 (Sigma). The cells were incubated with HS (Biosource-Invitrogen) to prevent unspecific binding. BBB-endothelial cells and PBMCs were incubated for 1 h at 4° C. with the primary unconjugated monoclonal mouse anti-Ninjurin-1 antibody (20 μg/ml, BD Biosciences), or with the Functional Grade Purified Mouse IgG2a Isotype Control (20 μg/ml, ebioscience, Inc., San Diego, Calif., USA). Cells were then incubated for 30 min at 4° C. with an allophycocyanin (APC)-conjugated goat anti-mouse Ig (2 μg/ml, BD Biosciences) to detect specific binding. Cells were then counter-stained for 30 min at 4° C. with mouse anti-human conjugated antibodies: Human Leukocyte Antigen (HLA)-ABC, Intracellular cell adhesion molecule (ICAM)-1, CD3, CD4, CD8, CD19, HLA-DR, CD14, CD83, CD123, CD209, CD11c or with corresponding isotype controls (all from BD Biosciences). To study the expression of Ninjurin-1 on murine immune cells, the mouse monoclonal anti-Ninjurin-1 antibody was biotinylated, to prevent unspecific binding of the secondary antibody. A buffer exchange was performed with a Slide-A-Lyzer® Dialysis Cassette (3.5-20K Cassettes, Thermo Scientific, Rockford, Ill., USA) to remove glycerol and bovine serum albumin (BSA) from the antibody solution using Melon™ Gel IgG Spin Purification Kit. Biotin was added using the EZ-Link® Micro NHS-PEO4-Biotinylation kit according to the manufacturer's instructions (Thermo Scientific). Murine peripheral blood or CNS mononuclear cells were incubated for 1 h at 4° C. with the primary biotinylated monoclonal mouse anti-Ninjurin-1 antibody (5 μg/ml, BD Biosciences), or with the Biotin-conjugated IgG2a, K isotype control (5 μg/ml, ebioscience). Cells were then incubated for 30 min at 4° C. with secondary antibody […]—APC (2 μg/ml, BD Biosciences). […] Cells were acquired on a BD LSR™ II Flow cytometer and analyzed using the BD FACSDiva™ software (BD Biosciences). […]

SCI mice = assay: Spinal cord injury (SCI), contusion with Infinite Horizons impactor; format: in vivo, C57BL/6 mice
Method: Immunofluorescent stainings of human and mouse CNS material. Luxol Fast Blue (LFB) and H&E stainings (Wosik et al., 2007) were performed on human and mouse brain tissue specimens obtained from four MS patients (autopsy) and EAE/SCI animals. Sections showing acute demyelinating lesions and active perivascular mononuclear cell infiltration were selected (8 to 12 blocks per MS donor), and compared to normal-appearing white matter from the same donors (8 blocks per donor) and to non-neurological disease controls (3 donors; 9-11 blocks per donor). Mean age was 49±6 years and disease duration ranged from 3 to 23 years. The cause of death was pneumonia (2), urosepsis (1) and barbiturate intoxication (1). […] Fluorescence was visualized on a Leica™ DM6000 B epifluorescent microscope equipped with a DFC480 digital camera (Leica Microsystems, Wetzlar Germany) or on a Leica™ SP5 confocal microscope. Images were acquired using Openlab™ 4.0.4 (Improvision, Waltham, Mass.) and processed and analyzed with Adobe Photoshop™ CS2 (Adobe, Mountain View, Calif.). Numbers of CD11c+ DCs, F4/80+ macrophages and MHC II+ cells in spinal cord were quantified in pictures of 15 random fields of the spinal cord (two mice per treatment group). […]
Spinal cord injury. […] Locomotor recovery was evaluated in an open-field test using the Basso Mouse Scale (BMS) (Basso D. M. et al., (2006). J Neurotrauma. 23(5): 635-59). […]

| Sequence | migration of CD14+ monocytes across human BBB-endothelial cells [1] | demyelination (tissue damage) and immune cell infiltration in EAE spinal cord, Luxol fast blue-H&E (EAE mice; Ninj26-37 200 μg i.p. twice daily day 3 to 23, vs control group) | infiltrating MHC II+, F4/80+ and CD11c+ myeloid cells in EAE spinal cord, immunofluorescence and cell counts (EAE mice; Ninj26-37 200 μg i.p. twice daily, 14 days post-immunization, vs control/scramble) | EAE neurological signs, symptoms and clinical scores (EAE mice; mouse Ninj26-37 200 μg i.p. twice a day, day 3 to 23 post-immunization, vs PBS (FIG. 6A) or scramble peptide (FIG. 15)) | infiltration of Iba1+ and CD11c+ myeloid cells in the spinal cord of SCI animals (SCI mice; murine Ninj26-37 200 μg i.p. b.i.d. day 1 to 7 after injury, day 7 post-injury, vs control peptide) | clinical scores (Basso mouse scale, BMS) after SCI (SCI mice; murine Ninj26-37 200 μg i.p. twice a day, vs control animals) |
| --- | --- | --- | --- | --- | --- | --- |
| PARWGWRHGPIN (SEQ ID NO: 5) (listed as Homo sapiens) [human Ninj26-37] | significantly restricts the migration |  |  |  |  |  |
| PPRWGLRNRPIN (SEQ ID NO: 6) (Peptide corresponding to residues 26 to 37 of human Ninjurin-1) [mouse Ninj26-37] |  | reduction in immune cell infiltration and demyelination | reduction of infiltrating | significant reduction of the neurological signs, symptoms and clinical scores | reduced | reduced |
